In US8466145B2, “Dipeptidyl peptidase IV inhibitors” (Orchid Chemicals & Pharmaceuticals Limited, priority 2009, dated 2013):

How the values were obtained:
DPP-IV = molecular target: T1, DPP-IV (Homo sapiens, UniProt P27487); experiment: DPP-IV inhibition, compounds screened by using human plasma; format: biochemical; details: screened by using human plasma (starred examples)
T1 construct: from tissue; host or cells: human plasma (per the earlier reading of the assay)
T1 sequence (P27487 39-766 limits assumed): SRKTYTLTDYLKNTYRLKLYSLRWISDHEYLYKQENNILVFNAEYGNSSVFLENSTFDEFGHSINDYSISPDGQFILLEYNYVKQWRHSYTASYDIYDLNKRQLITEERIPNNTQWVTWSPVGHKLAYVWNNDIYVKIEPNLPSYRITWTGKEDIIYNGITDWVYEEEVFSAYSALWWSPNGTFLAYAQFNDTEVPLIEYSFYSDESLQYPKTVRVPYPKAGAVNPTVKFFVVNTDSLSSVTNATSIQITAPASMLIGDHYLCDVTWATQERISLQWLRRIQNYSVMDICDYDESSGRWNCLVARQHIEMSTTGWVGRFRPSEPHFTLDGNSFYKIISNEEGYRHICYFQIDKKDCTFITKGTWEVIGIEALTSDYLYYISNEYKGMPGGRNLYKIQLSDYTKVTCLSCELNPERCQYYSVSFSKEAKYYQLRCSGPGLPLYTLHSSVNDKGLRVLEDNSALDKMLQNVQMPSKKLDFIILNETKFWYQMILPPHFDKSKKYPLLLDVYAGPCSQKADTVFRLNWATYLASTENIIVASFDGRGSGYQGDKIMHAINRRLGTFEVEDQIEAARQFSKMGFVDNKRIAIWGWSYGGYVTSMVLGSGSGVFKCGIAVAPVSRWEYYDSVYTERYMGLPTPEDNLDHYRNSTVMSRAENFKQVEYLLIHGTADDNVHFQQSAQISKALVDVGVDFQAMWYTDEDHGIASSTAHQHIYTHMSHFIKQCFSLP

melting point [°C] | inhibition at 0.3 µM (DPP-IV; 300 nM compound concentration) [%] | IC50 (DPP-IV) [nM] | Compound
91 to 94 | 29.2 | – | CC(C)c1noc([C@H]2CC[C@@](C)(NCC(=O)N3C[C@@H](F)C[C@H]3C#N)C2(C)C)n1 [Example 52, (2S,4S)-4-Fluoro-1-(2-((1R,3S)-3-(3-isopropyl-1,2,4-oxadiazol-5-yl)-1,2,2-trimethylcyclopentylamino)acetyl)pyrrolidine-2-carbonitrile]
160 to 163 | – | 422 | CC1(C)[C@H](c2nc(-c3ccc(F)cc3)no2)CC[C@]1(C)NCC(=O)N1C[C@@H](F)C[C@H]1C#N [Example 49, (2S,4S)-4-Fluoro-1-(2-((1S,3R)-3-(3-(4-fluorophenyl)-1,2,4-oxadiazol-5-yl)-1,2,2-trimethylcyclopentylamino)acetyl)pyrrolidine-2-carbonitrile]
123 to 127 | – | 330 | CC1(C)[C@@H](CNC(=O)c2ccccc2F)CC[C@@]1(C)NCC(=O)N1C[C@@H](F)C[C@H]1C#N [Example 21, N-(((1S,3R)-3-(2-((2S,4S)-2-Cyano-4-fluoropyrrolidin-1-yl)-2-oxoethylamino)-2,2,3-trimethylcyclopentyl)methyl)-2-fluorobenzamide]
